Measured values as given in patent publication US20050014789A1, “Amide derivatives as selective serotonin re-uptake inhibitors” (Pfizer Inc, priority 2003, published 2005).

Experiments:
Type in all cases: cell-based
[1] = target: T1, human serotonin transporter (hSERT) (Homo sapiens, UniProt P31645); assay: Inhibition of 3H-serotonin uptake in HEK-293 cells expressing hSERT; conditions: HEK-293 hSERT cells, 3H-5HT 50 nM, 5 min incubation; read-out: serotonin re-uptake inhibition (SRI) IC50
T1 construct: expressed in transfected cells
T1 sequence (P31645 whole entry): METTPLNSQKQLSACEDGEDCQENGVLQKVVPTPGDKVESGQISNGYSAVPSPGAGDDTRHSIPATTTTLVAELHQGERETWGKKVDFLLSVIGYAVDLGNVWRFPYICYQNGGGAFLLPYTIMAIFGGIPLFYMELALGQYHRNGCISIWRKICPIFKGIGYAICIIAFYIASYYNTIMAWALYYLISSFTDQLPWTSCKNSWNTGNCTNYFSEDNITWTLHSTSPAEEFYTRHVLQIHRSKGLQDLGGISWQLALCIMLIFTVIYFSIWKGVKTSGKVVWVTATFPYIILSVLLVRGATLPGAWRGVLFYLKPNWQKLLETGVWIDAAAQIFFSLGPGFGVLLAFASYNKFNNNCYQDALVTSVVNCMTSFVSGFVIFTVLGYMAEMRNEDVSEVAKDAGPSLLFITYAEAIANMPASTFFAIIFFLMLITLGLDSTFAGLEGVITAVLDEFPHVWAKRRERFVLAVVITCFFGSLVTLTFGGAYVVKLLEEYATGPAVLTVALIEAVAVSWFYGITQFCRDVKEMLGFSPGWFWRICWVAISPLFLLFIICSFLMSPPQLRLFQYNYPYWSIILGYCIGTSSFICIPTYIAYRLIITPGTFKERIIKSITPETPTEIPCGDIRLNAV
Protocol: (§1) Cells were harvested for the assay to yield a cell suspension of 750,000 cells/ml. […] Assays were carried out in 96-well filter bottom plates. […] All reactions were carried out at room temperature in a shaking incubator. Incubation times were 5 minutes for the hSERT and hDAT assays and 15 minutes for the hNET assay. Reactions were terminated by removal of the reaction mixture using a vacuum manifold followed by rapid washing with ice cold assay buffer. The quantity of ^3H-substrate incorporated into the cells was then quantified. Assay plates were dried in a microwave oven, scintillation fluid added, and radioactivity measured. […] Note: The pH of the buffer was adjusted to 7.40 with 1M NaOH before addition of CaCl2 and pargyline.

[2] = target: T2, noradrenaline transporter (hNET) (Homo sapiens, UniProt P23975); assay: Inhibition of 3H-noradrenaline uptake in HEK-293 cells expressing hNET
T2 construct: expressed in transfected cells
T2 sequence (P23975 whole entry): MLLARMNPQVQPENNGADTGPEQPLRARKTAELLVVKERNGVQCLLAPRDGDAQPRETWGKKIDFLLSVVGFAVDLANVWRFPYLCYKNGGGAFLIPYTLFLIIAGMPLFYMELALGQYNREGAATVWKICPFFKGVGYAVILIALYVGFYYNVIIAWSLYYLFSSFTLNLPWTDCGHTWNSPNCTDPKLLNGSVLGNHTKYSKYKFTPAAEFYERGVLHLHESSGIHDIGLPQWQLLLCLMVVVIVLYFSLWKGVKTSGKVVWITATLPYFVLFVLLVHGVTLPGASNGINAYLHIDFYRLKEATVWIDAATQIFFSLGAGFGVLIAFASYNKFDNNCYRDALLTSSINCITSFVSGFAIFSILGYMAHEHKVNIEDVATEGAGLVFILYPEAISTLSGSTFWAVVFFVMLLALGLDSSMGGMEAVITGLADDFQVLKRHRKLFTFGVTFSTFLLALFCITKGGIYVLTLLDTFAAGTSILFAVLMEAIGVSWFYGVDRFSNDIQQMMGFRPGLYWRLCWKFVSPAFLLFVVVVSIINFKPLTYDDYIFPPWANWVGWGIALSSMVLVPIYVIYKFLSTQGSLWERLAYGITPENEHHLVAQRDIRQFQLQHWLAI
Protocol: Cells were harvested for the assay to yield a cell suspension of 750,000 cells/ml. All test compounds were dissolved in 100% DMSO and diluted down in assay buffer to give appropriate test concentrations. Assays were carried out in 96-well filter bottom plates. […] All reactions were carried out at room temperature in a shaking incubator. Incubation times were 5 minutes for the hSERT and hDAT assays and 15 minutes for the hNET assay. Reactions were terminated by removal of the reaction mixture using a vacuum manifold followed by rapid washing with ice cold assay buffer. The quantity of ^3H-substrate incorporated into the cells was then quantified. Assay plates were dried in a microwave oven, scintillation fluid added, and radioactivity measured. […] Note: The pH of the buffer was adjusted to 7.40 with 1M NaOH before addition of CaCl2 and pargyline. [table]

[3] = target: T3, dopamine transporter (hDAT) (Homo sapiens, UniProt Q01959); assay: Inhibition of 3H-dopamine uptake in HEK-293 cells expressing hDAT
T3 construct: expressed in transfected cells
T3 sequence (Q01959 whole entry): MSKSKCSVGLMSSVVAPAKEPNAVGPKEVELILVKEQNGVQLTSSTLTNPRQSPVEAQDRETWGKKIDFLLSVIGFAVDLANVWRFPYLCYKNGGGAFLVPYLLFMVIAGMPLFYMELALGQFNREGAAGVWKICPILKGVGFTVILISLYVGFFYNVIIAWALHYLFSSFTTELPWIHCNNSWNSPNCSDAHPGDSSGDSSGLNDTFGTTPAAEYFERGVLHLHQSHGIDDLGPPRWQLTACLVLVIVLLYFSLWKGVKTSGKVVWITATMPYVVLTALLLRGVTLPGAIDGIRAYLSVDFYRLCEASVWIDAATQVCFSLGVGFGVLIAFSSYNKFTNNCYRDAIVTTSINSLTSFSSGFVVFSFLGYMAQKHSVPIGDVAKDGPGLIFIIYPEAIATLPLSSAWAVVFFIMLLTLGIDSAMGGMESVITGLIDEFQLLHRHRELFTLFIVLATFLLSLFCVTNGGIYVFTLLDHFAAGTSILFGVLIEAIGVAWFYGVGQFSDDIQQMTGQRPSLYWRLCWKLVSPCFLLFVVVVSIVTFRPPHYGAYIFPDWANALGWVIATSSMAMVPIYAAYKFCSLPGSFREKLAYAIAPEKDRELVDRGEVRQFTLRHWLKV
Protocol: as §1

`CC(C)CN(C(=O)c1ccc2ccccc2c1)[C@@H]1CCNC1.Cl` [Example 23, N-Isobutyl-N-[(3R)-pyrrolidin-3-yl]-2-naphthamide hydrochloride] was tested, and the IC50 [1] was 4.7 nM, the IC50 ([2]; HEK-293 hNET cells, 3H-Noradrenaline 200 nM, 15 min incubation, read-out: noradrenaline re-uptake inhibition IC50) was 1230 nM and the “fold more potent (serotonin re-uptake) over noradrenaline re-uptake” value ([2]; selectivity hSERT vs hNET) was 261 fold. The IC50 ([3]; HEK-293 hDAT cells, 3H-Dopamine 200 nM, 5 min incubation, read-out: dopamine re-uptake inhibition IC50) was 9490 nM and the “fold more potent (serotonin re-uptake) over dopamine re-uptake” value ([3]; selectivity hSERT vs hDAT) was 2018 fold.
